Tests used:
Cat L = Cat L (UniProt P07711); assay: Cathepsin enzyme inhibition assay (fluorogenic peptide substrate Z-Val-Val-Arg-AMC), Cathepsin L; assay type: biochemical, human and mouse; settings: enzyme 1 nM, substrate 20 μM, pH 6.5; read-out: CatL IC50
Method in brief: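 Cathepsin L at 1 nM was mixed with compound, then started with 20 μM Z-Val-Val-Arg-AMC in pH 6.5 potassium phosphate with EDTA, Triton X-100 and 5 mM DTT. AMC fluorescence (ex 360/em 465 nm) was followed over 20 min. IC50 is given in μM.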

Cathepsin S = Cathepsin S (UniProt P25774); assay: Cathepsin enzyme inhibition assay (fluorogenic peptide substrate Z-Val-Val-Arg-AMC), Cathepsin S; assay type: biochemical, human and mouse; settings: enzyme 1 nM, substrate 20 μM, pH 6.5; read-out: CatS IC50
Method in brief: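 Human or mouse cathepsin S (1 nM) was run in 100 mM potassium phosphate pH 6.5 with 5 mM EDTA, 0.001% Triton X-100 and 5 mM DTT. The rise in AMC fluorescence from cleavage was measured, and IC50 values were calculated by standard methods and expressed in μM.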

Row | SMILES | IC50 (Cat L) | IC50 (Cathepsin S)
1 | N#CC1(NC(=O)[C@@H]2C[C@@H](S(=O)(=O)c3ccc(OCC(F)(F)F)cc3Cl)CN2C(=O)C2(c3ccccc3)CCOCC2)CC1 [Example 287, (2S,4R)-4-[2-Chloro-4-(2,2,2-trifluoro-ethoxy)-benzenesulfonyl]-1-(4-phenyl-tetrahydro-pyran-4-carbonyl)-pyrrolidine-2-carboxylic acid (1-cyano-cyclopropyl)-amide] | 3170 nM | 0.175 nM
2 | Cn1cc(-c2ccc(C3(C(=O)N4C[C@H](S(=O)(=O)c5ccc(OCC(F)(F)F)cc5Cl)C[C@H]4C(=O)NC4(C#N)CC4)CC3)cc2)cn1 [Example 288, (2S,4R)-4-[2-Chloro-4-(2,2,2-trifluoro-ethoxy)-benzenesulfonyl]-1-{1-[4-(1-methyl-1H-pyrazol-4-yl)-phenyl]-cyclopropanecarbonyl}-pyrrolidine-2-carboxylic acid (1-cyano-cyclopropyl)-amide] | 3480 nM | 0.08 nM
3 | CN(C)c1ccc(S(=O)(=O)[C@@H]2C[C@@H](C(=O)NC3(C#N)CC3)N(C(=O)C3(C(F)(F)F)CC3)C2)c(Cl)c1 [Example 292, (2S,4R)-4-(2-Chloro-4-dimethylamino-benzenesulfonyl)-1-(1-trifluoromethyl-cyclopropanecarbonyl)-pyrrolidine-2-carboxylic acid (1-cyano-cyclopropyl)-amide] | 4130 nM | 0.157 nM
4 | CC1(C(=O)N2C[C@H](S(=O)(=O)c3ccc(OCC(F)(F)F)cc3Cl)C[C@H]2C(=O)NC2(C#N)CC2)COC1 [Example 294, (2S,4R)-4-[2-Chloro-4-(2,2,2-trifluoro-ethoxy)-benzenesulfonyl]-1-(3-methyl-oxetane-3-carbonyl)-pyrrolidine-2-carboxylic acid (1-cyano-cyclopropyl)-amide] | 7840 nM | 0.353 nM

These reach a lower IC50 (Cat L). Values come first.

Row | IC50 (Cat L) | IC50 (Cathepsin S) | SMILES
5 | 463 nM | 0.07 nM | N#CC1(NC(=O)[C@@H]2C[C@@H](S(=O)(=O)c3ccccc3Cl)CN2C(=O)C2(c3ccc(Cl)c(Cl)c3)CC2)CC1 [Example 284, (2S,4R)-4-(2-Chloro-benzenesulfonyl)-1-[1-(3,4-dichloro-phenyl)-cyclopropanecarbonyl]-pyrrolidine-2-carboxylic acid (1-cyano-cyclopropyl)-amide]
6 | 2600 nM | 0.227 nM | N#CC1(NC(=O)[C@@H]2C[C@@H](S(=O)(=O)c3ccccc3Cl)CN2C(=O)C2(c3ccncc3)CC2)CC1 [Example 285, (2S,4R)-4-(2-Chloro-benzenesulfonyl)-1-(1-pyridin-4-yl-cyclopropanecarbonyl)-pyrrolidine-2-carboxylic acid (1-cyano-cyclopropyl)-amide]
7 | 1600 nM | 0.13 nM | CN1CCN(c2ccc(S(=O)(=O)[C@@H]3C[C@@H](C(=O)NC4(C#N)CC4)N(C(=O)C4(C(F)(F)F)CC4)C3)c(Cl)c2)CC1 [Example 290, (2S,4R)-4-[2-Chloro-4-(4-methyl-piperazin-1-yl)-benzenesulfonyl]-1-(1-trifluoromethyl-cyclopropanecarbonyl)-pyrrolidine-2-carboxylic acid (1-cyano-cyclopropyl)-amide]
8 | 1400 nM | 0.18 nM | CC(C)N1CCN(c2ccc(S(=O)(=O)[C@@H]3C[C@@H](C(=O)NC4(C#N)CC4)N(C(=O)C4(C(F)(F)F)CC4)C3)c(Cl)c2)CC1 [Example 293, (2S,4R)-4-[2-Chloro-4-(4-isopropyl-piperazin-1-yl)-benzenesulfonyl]-1-(1-trifluoromethyl-cyclopropanecarbonyl)-pyrrolidine-2-carboxylic acid (1-cyano-cyclopropyl)-amide]
9 | 925 nM | 0.03 nM | N#CC1(NC(=O)[C@@H]2C[C@@H](S(=O)(=O)c3ccc(OCC(F)(F)F)cc3Cl)CN2C(=O)C2(c3ccc(F)cc3)CC2)CC1 [Example 295, (2S,4R)-4-[2-Chloro-4-(2,2,2-trifluoro-ethoxy)-benzenesulfonyl]-1-[1-(4-fluoro-phenyl)-cyclopropanecarbonyl]-pyrrolidine-2-carboxylic acid (1-cyano-cyclopropyl)-amide]
